Measured values as given in PMC9744210, “Discovery of the SHP2 allosteric inhibitor 2-((3R,4R)-4-amino-3-methyl-2-oxa-8-azaspiro[4.5]decan-8-yl)-5-(2,3-dichlorophenyl)-3-methylpyrrolo[2,1-f][1,2,4] triazin-4(3H)-one” (Journal of Enzyme Inhibition and Medicinal Chemistry, 2022).
pIC50: −log10 of the molar value.

Target: T1, SHP2 (Homo sapiens, UniProt Q06124)
T1 construct: 6xHis (N, cleaved yes); TEV cleavage site (N, cleaved yes); made in house; host or cells: E. coli BL21 (DE3)
T1 sequence (Q06124 1-525): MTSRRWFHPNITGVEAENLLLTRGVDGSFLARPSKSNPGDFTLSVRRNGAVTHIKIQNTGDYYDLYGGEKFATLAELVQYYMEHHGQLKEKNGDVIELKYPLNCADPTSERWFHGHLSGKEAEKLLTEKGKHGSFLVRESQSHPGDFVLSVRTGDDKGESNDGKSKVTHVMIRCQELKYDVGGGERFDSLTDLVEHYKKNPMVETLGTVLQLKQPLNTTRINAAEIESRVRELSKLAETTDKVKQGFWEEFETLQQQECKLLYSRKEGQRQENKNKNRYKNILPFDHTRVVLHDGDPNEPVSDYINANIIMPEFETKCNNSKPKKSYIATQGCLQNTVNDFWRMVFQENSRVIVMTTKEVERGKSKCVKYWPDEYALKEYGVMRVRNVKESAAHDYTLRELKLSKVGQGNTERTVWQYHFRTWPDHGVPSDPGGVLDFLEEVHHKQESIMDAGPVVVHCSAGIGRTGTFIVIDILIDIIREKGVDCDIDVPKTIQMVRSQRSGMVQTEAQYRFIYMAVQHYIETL
Assay: SHP2 phosphatase activity inhibition, DiFMUP prompt fluorescence assay
Format: biochemical
Settings: 0.5 nM SHP2 activated with 0.125 µM bis-tyrosyl-phosphorylated peptide; substrate DiFMUP 200 μM; room temperature; read-out: Inhibitory activity IC50
Method: The measurement of the catalytic activity of SHP2 is using the surrogate substrate 6,8-difluoro-4-methylumbelliferyl phosphate (DiFMUP) in a prompt fluorescence assay format.[14]^,[22]^,[23] In special, the phosphatase reaction was performed at room temperature in a 384-well black plate (Corning) with a total volume of 20 μL. The assay buffer contained 60 mM HEPES, pH7.2, 75 mM NaCl, 75 mM KCl, 1 mM EDTA, 5 mM DTT, and 0.05% Triton X-100.
After 60 min incubation at room temperature, the surrogate substrate DiFMUP (Thermo, Cat: D6567, 200 μM) was added to the catalytic reaction. After 30 min incubation at room temperature, the fluorescence signal was measured at the excitation and emission wavelengths of 340 nm and 450 nm respectively with a plate reader (Tecan Spark). The curves of the inhibitor dose–response were analysed using normalised IC50 regression curve fitting with control-based normalisation.

Row | pIC50 | Compound
1 | 6.98 | C[C@H]1OCC2(CCN(c3nn4cnc(-c5cccc(Cl)c5Cl)c4c(=O)n3C)CC2)[C@H]1N [PB17-021-01]
2 | 6.19 | Cn1c(N2CCC(C)(CN)CC2)nn2ccc(-c3cccc(Cl)c3Cl)c2c1=O [PB17-036-01]
3 | 7.41 | C[C@H]1OCC2(CCN(c3nn4ccc(-c5cccc(Cl)c5Cl)c4c(=O)n3C)CC2)[C@H]1N [PB17-026-01, 2-((3R,4R)-4-amino-3-methyl-2-oxa-8-azaspiro[4.5]decan-8-yl)-5–(2,3-dichlorophenyl)-3-methylpyrrolo[2,1-f][1,2,4]triazin-4(3H)-one]
4 | 6.77 | C[C@H]1OCC2(CCN(c3nn4ccc(-c5ccncc5)c4c(=O)n3C)CC2)[C@H]1N [PB17-035-01]
